Experimental data taken from patent EP4748837A1, “AROMATIC AMIDE DERIVATIVE, AND PREPARATION METHOD THEREFOR AND USE THEREOF” (Zhejiang Hisun Pharmaceutical Co., Ltd., priority 2023, dated 2025).

Tests used:
[1] = Pharmacokinetic testing in mice after intragastric administration; format: in vivo; conditions: ICR mice; for area under the curve (in words) / pharmacokinetic properties (in words) / plasma concentration (in words): oral 10 mg/kg, conclusion; for AUC(0-inf) / half-life / Cmax: male, mouse, oral administration 10 mg/kg, plasma; for AUC(0-inf): read-out: Area under the curve AUC0-∞; for half-life: read-out: Half-life period T1/2 (converted); for Cmax: read-out: Plasma concentration Cmax
Procedure: ICR mice were taken as test animals, and intragastrically administered with a control compound AMG650 and compounds 47 and 53 of the present invention, and then drug concentrations in plasma at different moments were determined by an LC/MS/MS method, so as to study pharmacokinetic characteristics of the compounds of the present invention in the mice.
Control compound AMG650, and Compounds 47 and 53.
ICR mice, male, 20-22 g, purchased from Vital River Laboratory Animal Technology Co., Ltd.
A proper amount of to-be-tested compound was weighed, proper amounts of DMA, 30% HS-15 and Saline were added in sequence, and the mixture was well mixed by ultrasonic vortex to prepare 1 mg/mL drug preparations respectively, wherein […]: 30% HS-15: Saline=5: 5: 90 (v: v: v).
ICR mice in each to-be-tested compound injection group (9 mice in each group) were fasted overnight and then intragastrically administered with the compound (PO, an administration dosage of the compound was 10 mg/kg and an administration volume of the compound was 10 mL/kg), and were fed 4 hours after administration.
0.25 hours, 0.5 hours, 1 hour, 2 hours, 4 hours, 6 hours, 8 hours and 24 hours before and after administration, about […] of blood was collected through an orbit, and a complete blood sample was placed in an EDTA-K2-containing anticoagulation tube. The collected blood samples were placed on ice, and plasma was centrifugally separated (centrifugation conditions: 1500 g, 10 minutes). The collected plasma was stored at -40°C - -20°C before analysis.
A content of the to-be-tested compound in the plasma of the mice after intragastric administration was determined by LC-MS/MS.

[2] = system: HT-29 cells; test: Inhibition of HT-29 cell proliferation (CellTiter-Glo cell viability); format: cell-based; conditions: Homo sapiens; HT-29 cells (TP53 R273H mutation), 120 hours culture with compound; read-out: IC50
Outline: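 HT-29 cells (TP53 R273H) in McCOY's 5A with 10% FBS, seeded 1000 cells/well overnight, then exposed to compound at 1000 nM–0.015 nM final for 120 hours at 37°C. Viability by CellTiter-Glo luminescence versus 0.3% DMSO control; IC50 by nonlinear regression of log concentration–inhibition.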

Row | Compound | area under the curve (in words) [1] | pharmacokinetic properties (in words) [1] | plasma concentration (in words) [1] | AUC(0-inf) [1] [ng·h/mL] | half-life [1] [h] | Cmax [1] [ng/mL] | IC50 [2] [nM]
1 | CCS(=O)(=O)Nc1ccc(C(=O)Nc2ccc(-c3ncn(C)n3)c(OCC(F)(F)F)c2)c(N2CCC3(CC2)CC3)c1 [Example 47, 4-(ethylsulfonamido)-N-(4-(1-methyl-1H-1,2,4-triazol-3-yl)-3-(2,2,2-trifluoroethoxy)pheny 1)-2-(6-azaspiro[2.5]octan-6-yl)benzamide] | large area under the curve | good pharmacokinetic properties | high plasma concentration | 44100 | 5.45 | 3500 | 0.54
2 | CCS(=O)(=O)Nc1ccc(C(=O)Nc2ccc(-c3ncccn3)c(OCC(F)(F)F)c2)c(N2CCC3(CC2)CC3)c1 [Example 53, 4-(ethylsulfonamido)-N-(4-(pyrimidin-2-yl)-3-(2,2,2-trifluoroethoxy)phenyl)-2-(6-azaspiro[2.5]octan-6-yl)benzamide] | large area under the curve | good pharmacokinetic properties | high plasma concentration | 83700 | 12.1 | 5790 | 6.8
